According to patent publication EP2633864A1, “Clip inhibitors and methods of modulating immune function” (The Regents of the University of Colorado, priority 2008, dated 2010):

Key:
[1] = system: B cell surface CLIP; assay: Effect on B cell surface CLIP (Figure 4); format: cell-based
[2] = system: mouse splenic B cells; assay: TLR ligand induced ectopic CLIP on mouse splenic B cells in vitro (15G4 anti-CLIP/I-Ab versus B220); format: cell-based; conditions: treatment in vitro; figure 12d
Text: Mouse splenocytes or T-depleted splenocytes were red cell depleted using Geys Solution, and cells were counted. For T-depleted B cell preparations, B cells were separated by discontinuous Percoll (Pharmacia LKB Biotechnology, Piscataway, NJ) gradients (13). Those cells layering at the 1.079/1.085 g/ml interface (1.079 < ρ ≤ 1.085) are designated throughout as resting B cells. Cells layering at the BSS/1.066 g/ml interface (ρ ≤ 1.066) are designated as activated. Viable cells from this latter interface were isolated using Lympholyte-M (Cedarlane Laboratories, Ltd., Hornby, Ontario, Canada). Cells from each layer were harvested, washed, and resuspended at 10^7 cells/ml in PBS containing 5% fetal calf serum.
Total splenocytes, from either B6.129, Ii-deficient, or H2M-deficient mice were cultured with LPS for 24, 48, 72, or 96 hours as indicated. Cells were harvested and stained by two-color fluorescence using 15G4-FITC anti-mouse CLIP/I-A^b versus anti-mouse B220 PE. […]
Freshly isolated splenocytes, single cell suspensions of lymph node cells, resting (or activated) B cells, or primed B cells were isolated from B6.129, Ii-deficient, or H2M-deficient mice and cultured in 24 well plates in complete RPMI medium, with or without the appropriate Toll ligand, at 10^6 cells/ml. […] Cells were stained by two-color fluorescence using 15G4-FITC anti-mouse CLIP/I-A^b versus anti-mouse B220 PE. […]

SMILES | B cell surface CLIP [1] | exogenous CLIP expression on the activated mouse B cells [2]
OC[C@H]1OC(O)C[C@@H](O)[C@@H]1O (some centres unmarked) [2-Deoxyglucose, 2-deoxyglucose] | affects B cell surface CLIP | 
CCOCc1nc2c(N)nc3ccccc3c2n1CC(C)(C)O [R848, imidazoquinoline resiquimod] |  | resulted in exogenous CLIP expression
